Experimental data: patent US20060062753A1, “Polymeric quaternary ammonium salts useful as corrosion inhibitors and biocides” (priority 2004, published 2006)

Tests used:
[1] = system: Anaerobic Acid Producing (AnAP) Bacteria; test: Biocide test API RP 38, anaerobic acid producing bacteria; format: cell-based; conditions: 4 hours contact at 37° C., growth monitored 15 days
Description: (§1) The effectiveness of the polymeric quaternary ammonium salts as a biocide was tested using the method shown in the API Recommended Practice for Biological Analysis of Subsurface Injection Waters, API RP 38, March, 1982, which is hereby fully incorporated by reference. The effectiveness of the salts as a biocide was tested using planktonic sulfate reducing bacteria (SRB), Aerobic Acid Producing Bacteria (AAPB) and Anaerobic Acid Producing (AnAP) Bacteria.
(§2) The desired concentrations of the polymeric quaternary ammonium salt biocide were added to clean sterilized bottles. Two bottles contained no biocides and served as controls. Under a N2 blanket, 10 mL of actively growing bacterial culture (24 hours old) was added to each of the bottles, and a 1 mL sample was taken and serially diluted into six bottles. The solutions were mixed well and the bottles were placed in an incubator at 37° C. for 4 hours. At the end of this period, 1 mL samples from each of the treated bottles were taken and serially diluted into 3 bottles. Samples from the control bottles were serially diluted into six bottles. All bottles were then placed in an incubator at 37° C. and bacterial growth was monitored for 15 days.

[2] = system: planktonic sulfate reducing bacteria (SRB); test: Biocide test API RP 38, sulfate reducing bacteria; format: cell-based; conditions: 4 hours contact at 37° C., growth monitored 15 days
Description: as §1, §2

[3] = system: Aerobic Acid Producing Bacteria (AAPB); test: Biocide test API RP 38, aerobic acid producing bacteria; format: cell-based; conditions: 4 hours contact at 37° C., growth monitored 15 days
Description: as §1, §2

[4] = Standard testing procedures for determining biodegradability
Description: The present invention provides compositions comprising polymeric quaternary ammonium salts and methods of their use as a corrosion inhibitor and/or biocide. The polymeric quaternary ammonium salts described herein are highly biodegradable, thereby making these compositions highly desirable for use in corrosion systems that require careful consideration concerning environmental impact, such as on offshore drilling platforms. […] For purposes of comparison, sodium benzoate was about 85.5% biodegraded after 7 days, about 95% biodegraded after 14 days and 100% biodegraded after 28 days.

## O=CCCCC=O [Glutaraldehyde]
[1]; dosage 31.3 ppm
  Bacterial cells/ml, Anaerobic Acid Producing (AnAP) Bacteria: 10^2 cells/ml
[1]; dosage 62.5 ppm
  Bacterial cells/ml, Anaerobic Acid Producing (AnAP) Bacteria: ≧10^3 cells/ml
[1]; dosage 125 ppm
  Bacterial cells/ml, Anaerobic Acid Producing (AnAP) Bacteria: ≧10^3 cells/ml
[2]; dosage 31.3 ppm
  Bacterial cells/ml, sulfate reducing bacteria: 10^1 cells/ml
[2]; dosage 62.5 ppm
  Bacterial cells/ml, sulfate reducing bacteria: 0^ cells/ml
[3]; dosage 100 ppm
  Bacterial cells/ml, Aerobic Acid Producing Bacteria (AAP): ≧10^3 cells/ml
[3]; dosage 200 ppm
  Bacterial cells/ml, Aerobic Acid Producing Bacteria (AAP): ≧10^3 cells/ml
[3]; dosage 375 ppm
  Bacterial cells/ml, Aerobic Acid Producing Bacteria (AAP): 10^2 cells/ml
[3]; dosage 500 ppm
  Bacterial cells/ml, Aerobic Acid Producing Bacteria (AAP): 10^1 cells/ml

## O=C([O-])c1ccccc1.[Na+] [sodium benzoate]
[4]; after 7 days
  biodegraded: about 85.5%
[4]; after 14 days
  biodegraded: about 95%
[4]; after 28 days
  biodegraded: 100%
